GI50 and TGI data for 23 compounds are collected here from PubChem BioAssay (NCI).

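48-hour exposure; five concentrations; linearly interpolated endpoints. GI50 is the concentration that inhibits growth by half. TGI is the concentration that stops growth completely.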

Test in all cases: DTP human tumour cell line panel, 48 h
The test system of test [1] is SF-539 CNS.
The subject of test [2] is HCT-15 colon.
Test [3] has as its system HCT-116 colon.
The subject of test [4] is U251 CNS.
The subject of test [5] is RXF 393 renal.
Test [6] relates to PC-3 prostate.
The subject of test [7] is CCRF-CEM leukemia.
Test [8] deals with SK-MEL-28 melanoma.
In test [9] the test system is A498 renal.
Test [10] has as its system MALME-3M melanoma.

For the compound `Cc1c(Sc2ccccc2)[n+](=O)c2cc(Cl)c(Cl)cc2n1[O-]`, the GI50 in [1] was 89.9 µM; in test [2], 53.7 µM; in [3] it was 27400 nM; in test [4], greater than 100 µM; in [5], 23.2 µM; in [6] it was greater than 100 µM. Also, the GI50 is 32.8 µM in [7] and greater than 100 µM in test [8]. For the same compound, the TGI in test [1] was greater than 100 µM; in test [2], greater than 100 µM; in test [3] it was 59.4 µM; in test [4], greater than 100 µM; in test [5] it was 90.1 µM; in test [6] it was greater than 100 µM. Besides, the concentration for total growth inhibition (TGI) in test [7] and in test [8] was greater than 100 µM throughout.

With `ClCc1ccc(Cn2cnc3c(Cl)nc(Cl)nc32)cc1`, the GI50 in test [1] was 17.1 µM; in test [2] it was 1.86 µM; in test [3], 1720 nM; in test [4] it was 2.05 µM; in [9] it was 12.1 µM; in test [5] it was 20.9 µM. Besides, the values for the GI50 in [6], in [7] and in [8] were 2.7 µM, 1.94 µM and 2.69 µM, respectively. The TGI came out at 31.1 µM in [1]; 3.77 µM in test [2]; 3.6 µM in test [3]; 3.88 µM in test [4]; 25.1 µM in test [9]; 41.5 µM in test [5]. Further, the TGI in test [6] was 7.17 µM; in test [7] it was 4.53 µM; in test [8], 6.99 µM.

For `COc1cc2c3c(n(CCCN=[N+]=[N-])c(=O)c2cc1OC)-c1ccc(N(C)C)cc1C3=O`, the GI50 in [1], in [2], in test [4], in test [5], in test [10] and in test [6] was greater than 100 µM throughout. For the same compound, the GI50 in test [7] and in test [8] was greater than 100 µM in each case. For the same compound, the TGI in test [1], in [2], in test [4], in test [5], in test [10] and in test [6] was greater than 100 µM throughout. For the same compound, the TGI in [7] and in test [8] was greater than 100 µM each time.

For the compound `O=S(=O)(NCCNc1nccc(-c2c(-c3ccc(F)cc3)nc3sccn23)n1)c1ccccc1`, the GI50 is 19 µM in [1]; 3.07 µM in test [2]; 2360 nM in test [3]; 6.45 µM in test [4]; 5.23 µM in [9]; 5.82 µM in test [10]. The GI50 is 4 µM in test [6], 3.5 µM in test [7] and 9.36 µM in test [8]. Moreover, the TGI in test [1] is greater than 100 µM; in [2] it was greater than 100 µM; in test [3], 14.9 µM; in test [4], 26.9 µM; in test [9], greater than 100 µM; in [10], 51.1 µM. Also, the values for the TGI in test [6], in [7] and in [8] were 78.8 µM, greater than 100 µM and greater than 100 µM, respectively.

Take `NCCSCCc1ccccc1`: the total growth inhibition concentration (TGI) in [1], in test [2], in test [3], in test [4], in test [9] and in test [5] was greater than 100 µM in each case. The TGI in [10], in [6] and in [8] was greater than 100 µM each time.

Regarding `CO[C@H]1CC(c2ccc[nH]2)=N[C@]12O[C@@H](C)C[C@@H]1CCCCCCCc3ccc([nH]3)[C@H]12`, the GI50 was 1.01 µM in test [1]; 0.851 µM in test [2]; 711 nM in test [3]; 1.14 µM in [4]; 0.807 µM in test [5]; 0.886 µM in test [10]. Further, the values for the GI50 in test [6], in [7] and in [8] were 0.78 µM, 0.704 µM and 1.92 µM, respectively. The TGI in [1] came out at 9.26 µM; in [2], 8.51 µM; in test [3], 3.48 µM; in test [4] it was 17.3 µM; in [5], 7.53 µM; in test [10], 3.62 µM. In addition, the TGI in test [6] is 20.7 µM; in test [7] it was greater than 30.4 µM; in [8] it was 8.26 µM.

In the case of `O=C(Nc1ccc(Cl)c(Cl)c1)OCCN1c2ccccc2Sc2ccccc21`, the TGI in test [1], in [2], in test [3], in test [4], in [10] and in test [6] was greater than 10 µM in each case. The TGI in [7] and in test [8] was greater than 10 µM throughout.

For `COc1ccc(Nc2cc(C)nc(N3CCN(c4ccnc5cc(Cl)ccc45)CC3)n2)cc1`, the GI50 is 2.06 µM in test [2]; 1340 nM in test [3]; 3.06 µM in test [4]; 0.832 µM in test [9]; 2.79 µM in test [5]; 3.17 µM in [10]. Also, the GI50 was 2.21 µM in test [6] and 2.85 µM in [7]. Besides, the TGI in [2] was greater than 100 µM; in test [3], 3.24 µM; in [4], 36.6 µM; in test [9] it was 7.26 µM; in test [5], 21 µM; in test [10] it was greater than 100 µM. In addition, the TGI in test [6] and in test [7] was greater than 100 µM in each case.

`C=CS(=O)(=O)CCN1CC1`: the TGI in [1], in test [2], in test [3], in test [4], in test [10] and in test [6] was greater than 10 µM each time. Further, the TGI in test [7] and in [8] was greater than 10 µM throughout.

On to `O=C1C=CC(O)C2C1CC13SSC4(CC5C(=O)C=CC(O)C5N4C1=O)C(=O)N23` (configuration not stated), for which the TGI in [1] turned out to be 0.505 µM; in [2] it was 0.794 µM; in [4], 1.28 µM; in test [9], 6.26 µM; in test [5], 1.48 µM; in test [10], 1.22 µM. Moreover, the TGI worked out at 1.13 µM in test [6], 1.95 µM in [7] and 1.91 µM in test [8].

For the compound `O=C1CC(c2ccc(Cl)cc2)Oc2ccccc21` (configuration not stated), the TGI in test [1] was 26.1 µM; in test [2], 48 µM; in test [3], greater than 100 µM; in test [4] it was greater than 100 µM; in [9], 73 µM; in [6] it was 52.5 µM. Also, the TGI in test [7] is 37.4 µM; in test [8], greater than 100 µM.

Take `O=C1OC(c2ccccc2)=N/C1=C\c1cccc(F)c1`: the TGI in test [2], in [3], in test [4], in test [9], in [5] and in test [6] was greater than 100 µM each time. In addition, the TGI in test [7] is 72.7 µM; in [8], greater than 100 µM.

Regarding `C=C1[C@@H]([C@@]2(C)C=CC(=O)C(C)(C)[C@@H]2CC(=O)OC)CC[C@@]2(C)C(c3ccoc3)OC(=O)[C@H]3O[C@]132` (some centres not stated), the TGI in test [1], in [2], in test [3], in [4], in test [9] and in test [10] was greater than 100 µM in each case. Besides, the TGI in [6], in [7] and in test [8] was greater than 100 µM throughout.

Take `CCc1nc(N)nc(N)c1-c1ccc(Cl)c(N=CN(C)C)c1`: the TGI in test [1], in test [2], in test [3], in test [4], in test [9] and in test [5] was greater than 100 µM each time. For the same compound, the TGI is greater than 100 µM in test [6], 97.6 µM in test [7] and greater than 100 µM in [8].

As to `Cc1cc(OCc2nnc3n2N=C(c2ccc(Cl)cc2Cl)CS3)ccc1Cl`, the GI50 in test [1] was greater than 100 µM; in test [2] it was 39.4 µM; in test [3] it was 53000 nM; in test [4], 71.3 µM; in test [5], 52.2 µM; in test [10], 68.9 µM. Also, the GI50 was 51.3 µM in [6], 42.2 µM in test [7] and 79.3 µM in [8]. For the same compound, the concentration for total growth inhibition (TGI) in [1], in test [2], in [3], in test [4], in test [5] and in test [10] was greater than 100 µM in each case. Besides, the TGI in [6], in test [7] and in test [8] was greater than 100 µM throughout.

Turning to `O=C1OC(CN2CCOCC2)CN1/N=C/c1ccc([N+](=O)[O-])o1` (configuration not stated), the total growth inhibition concentration (TGI) in test [1] is greater than 100 µM; in [2] it was 39.2 µM; in test [3], 39.3 µM; in test [4] it was 98.6 µM; in test [10] it was 46.6 µM; in [6], greater than 100 µM. The total growth inhibition concentration (TGI) in test [7] and in test [8] was greater than 100 µM throughout.

As to `Cc1ccc(-c2nc(N3CCCNCC3)c3oc(-c4ccc(C)cc4)nc3n2)cc1`, the GI50 in [1] was 1.76 µM; in test [2], 1.49 µM; in test [3], 1570 nM; in test [4], 1.76 µM; in test [9] it was 15.8 µM; in test [5] it was 1.65 µM. For the same compound, the GI50 was 1.98 µM in [10], 1.51 µM in [6] and 1.93 µM in test [8]. The TGI in test [1] stood at 3.29 µM; in test [2] it was 2.96 µM; in [3], 2.92 µM; in [4], 3.18 µM; in test [9] it was 31.7 µM; in [5], 3.14 µM. The figures for the TGI in test [10], in [6] and in test [8] were 3.61 µM, 2.91 µM and 3.51 µM, respectively.

Turning to `CN1C(Cl)=NS(=O)(=O)c2ccccc21`, the TGI in [1], in test [2], in test [3], in test [4], in test [9] and in test [5] was greater than 100 µM each time. Moreover, the TGI in test [6], in test [7] and in [8] was greater than 100 µM in each case.

Turning to `O=C1OC(OCC#CCOC2OC(=O)C(Cl)=C2Cl)C(Cl)=C1Cl` (configuration not stated), the TGI amounted to 31.8 µM in [1]; 27.3 µM in test [2]; 21.8 µM in test [3]; 27.1 µM in [6]; 4.63 µM in test [7]; 30.1 µM in test [8].

As to `C=CCCCc1ccc(C(O)CCCCCCCCCCCC)o1` (configuration not stated), the GI50 was 22.1 µM in [1]; 15.5 µM in test [2]; 15500 nM in test [3]; 15.5 µM in [4]; 19.6 µM in test [5]; 26 µM in test [10]. The results for the GI50 in [6], in test [7] and in test [8] were 19.8 µM, 23.1 µM and 20.6 µM, respectively. The TGI in test [1] came to 40.6 µM; in test [2] it was 30.3 µM; in [3], 28.9 µM; in test [4], 29.1 µM; in test [5] it was 39.3 µM; in test [10], 72.1 µM. In addition, the TGI came out at 46 µM in [6], 56.8 µM in test [7] and 50.6 µM in [8].

For the compound `COc1cc2c(c(OC3OC(CO)C(O)C(O)C3O)c1)C(=O)CC(c1ccc(O)cc1)O2` (configuration not stated), the TGI in [1], in test [2], in test [3], in [4], in [9] and in test [6] was greater than 100 µM each time. This compound also came in with a TGI in test [8] greater than 100 µM.

As for `O=C1NC(=O)C2C1N(Cc1ccccc1)C(=O)N2Cc1ccccc1` (configuration not stated), the TGI in [1], in test [2], in [3], in test [4], in test [9] and in [5] was greater than 100 µM throughout. Moreover, the TGI in test [10], in [7] and in test [8] was greater than 100 µM in each case.

As to `COc1ccc(Nc2c3ccccc3nc3[nH]c4ccccc4c23)cc1`, the GI50 is 6.5 µM in test [1]; 8.33 µM in [2]; 4830 nM in test [3]; 11.7 µM in test [4]; greater than 50 µM in [5]; 7.87 µM in test [6]. Further, the GI50 in test [8] is 18.5 µM. Further, the TGI in test [1] was 20 µM; in test [2] it was greater than 50 µM; in test [3], 28 µM; in test [4], 42.8 µM; in test [5], greater than 50 µM; in test [6] it was 28.9 µM. The TGI in test [8] was greater than 50 µM.
